Results as given in patent US10821195B2, “Compositions for therapeutics, targeted PET imaging and methods of their use” (Memorial Sloan Kettering Cancer Center, priority 2015, dated 2020).

Key:
[1] = Metal ion challenge of ^177Lu-HOPO and ^177Lu-DOTA; type: physicochemical; conditions: 10-fold excess Cu^2+, Fe^3+, Ga^3+, Gd^3+, 6 d
Method: The incubations were performed at 37° C. in a thermomixer over the course of 6 d and analyzed by radioTLC using C-18 TLC plates developed with 50 mM DTPA at 1, 3, and 6 d.

[2] = Hydroxyapatite stability (competition); type: physicochemical; conditions: after 6 d, 37° C.
Method: Additionally, each day the mixtures were vortexed to ensure proper mixing. At the respective time point, the aliquot was vortexed, centrifuged, vortexed, filtered (0.45 μm, 13 mm, nylon syringe filter, Fisher Scientific, Waltham, Mass.), and the filter washed with 1 mL of 50:50 EtOH in water. The filter (bound to hydroxyapatite), reaction tube, and filtrate (bound to the chelator) were counted separately on a gamma counter to determine the amount of activity in each.

[3] = Biodistribution of ^177Lu-HOPO and ^177Lu-DOTA in healthy female nude mice; type: in vivo
Method: Therefore, healthy female nude mice were injected with each of the complexes in order to determine their relative in vivo stabilities. The results are tabulated in Table 3 and are shown as graphs in FIG. 21A, FIG. 21B and FIG. 22.
Aliquots of the injectate (10 μL) were weighed and counted as standards with the tissues. The injection syringes were weighed pre- and post-injection to determine the weight of injectate and the activity according to the dose calibrator was measured before and after injection. All of the tissues were weighed and counted with the standards. The standards were used to obtain the counts/g injectate, the weights of the injectate were used to determine the total number of counts for the injected dose (ID), the counts of the tissue were used to get the % ID, and the weights of the tissues were used to obtain the % ID/g. Standard averaging and standard deviation calculations were applied.

[4] = Log D7.4 in octanol/PBS; type: physicochemical

## O=C([O-])CN1CCN(CC(=O)[O-])CCN(CC(=O)[O-])CCN(CC(=O)[O-])CC1.[177Lu+3].[H+] [^177Lu-DOTA]
[1]
  stability to transmetallation: stable to transmetallation with all of the metals investigated in this study
[2]
  complex intact in hydroxyapatite competition: > 98%
[3]; 0.5 h
  Blood/Bone ratio: 5 ± 2
  Kidney/Bone ratio: 13 ± 7
  L. Intestine/Bone ratio: 0.6 ± 0.3
  Liver/Bone ratio: 2.2 ± 0.7
  Muscle/Bone ratio: 0.9 ± 0.5
  S. Intestine/Bone ratio: 1.6 ± 0.6
  biodistribution Bladder: 0.691 ± 0.116 % ID/g
  biodistribution Blood: 0.407 ± 0.179 % ID/g
  biodistribution Bone: 0.090 ± 0.026 % ID/g
  biodistribution Heart: 0.142 ± 0.069 % ID/g
  biodistribution Kidneys: 1.121 ± 0.490 % ID/g
  biodistribution L. Intestine: 0.056 ± 0.025 % ID/g
  biodistribution Liver: 0.199 ± 0.033 % ID/g
  biodistribution Lungs: 0.298 ± 0.131 % ID/g
  biodistribution Muscle: 0.085 ± 0.037 % ID/g
  biodistribution Pancreas: 0.080 ± 0.037 % ID/g
  biodistribution S. Intestine: 0.142 ± 0.038 % ID/g
  biodistribution Spleen: 0.103 ± 0.019 % ID/g
  biodistribution Stomach: 0.120 ± 0.035 % ID/g
[3]; 1 h
  Blood/Bone ratio: 0.6 ± 0.4
  Kidney/Bone ratio: 30 ± 30
  L. Intestine/Bone ratio: 0.26 ± 0.19
  Liver/Bone ratio: 2.3 ± 1.7
  Muscle/Bone ratio: 0.4 ± 0.4
  S. Intestine/Bone ratio: 1.5 ± 1.1
  biodistribution Bladder: 0.2962 ± 0.1869 % ID/g
  biodistribution Blood: 0.0287 ± 0.0038 % ID/g
  biodistribution Bone: 0.0491 ± 0.0349 % ID/g
  biodistribution Heart: 0.0142 ± 0.0016 % ID/g
  biodistribution Kidneys: 1.4402 ± 1.2901 % ID/g
  biodistribution L. Intestine: 0.0129 ± 0.0015 % ID/g
  biodistribution Liver: 0.1121 ± 0.0174 % ID/g
  biodistribution Lungs: 0.0444 ± 0.0175 % ID/g
  biodistribution Muscle: 0.0219 ± 0.0154 % ID/g
  biodistribution Pancreas: 0.0143 ± 0.0050 % ID/g
  biodistribution S. Intestine: 0.0722 ± 0.0209 % ID/g
  biodistribution Spleen: 0.0410 ± 0.0100 % ID/g
  biodistribution Stomach: 0.0230 ± 0.0174 % ID/g
[3]; 4 h
  Blood/Bone ratio: 0.18 ± 0.06
  Kidney/Bone ratio: 40 ± 30
  L. Intestine/Bone ratio: 6 ± 7
  Liver/Bone ratio: 10 ± 4
  Muscle/Bone ratio: 0.74 ± 0.15
  S. Intestine/Bone ratio: 3 ± 3
  biodistribution Bladder: 0.1088 ± 0.0148 % ID/g
  biodistribution Blood: 0.0011 ± 0.0003 % ID/g
  biodistribution Bone: 0.0060 ± 0.0007 % ID/g
  biodistribution Heart: 0.0052 ± 0.0016 % ID/g
  biodistribution Kidneys: 0.2398 ± 0.1571 % ID/g
  biodistribution L. Intestine: 0.0361 ± 0.0403 % ID/g
  biodistribution Liver: 0.0614 ± 0.0205 % ID/g
  biodistribution Lungs: 0.0080 ± 0.0044 % ID/g
  biodistribution Muscle: 0.0044 ± 0.0007 % ID/g
  biodistribution Pancreas: 0.0068 ± 0.0038 % ID/g
  biodistribution S. Intestine: 0.0209 ± 0.0180 % ID/g
  biodistribution Spleen: 0.0249 ± 0.0009 % ID/g
  biodistribution Stomach: 0.0038 ± 0.0026 % ID/g
[3]; 1 d
  Blood/Bone ratio: 0.04 ± 0.02
  Kidney/Bone ratio: 46 ± 12
  L. Intestine/Bone ratio: 10 ± 7
  Liver/Bone ratio: 7.6 ± 1.6
  Muscle/Bone ratio: 0.6 ± 0.3
  S. Intestine/Bone ratio: 4 ± 3
  biodistribution Bladder: 0.1599 ± 0.07394 % ID/g
  biodistribution Blood: 0.0002 ± 0.00011 % ID/g
  biodistribution Bone: 0.00484 ± 0.00076 % ID/g
  biodistribution Heart: 0.0027 ± 0.00067 % ID/g
  biodistribution Kidneys: 0.2226 ± 0.04562 % ID/g
  biodistribution L. Intestine: 0.05022 ± 0.03098 % ID/g
  biodistribution Liver: 0.0369 ± 0.00538 % ID/g
  biodistribution Lungs: 0.0041 ± 0.00192 % ID/g
  biodistribution Muscle: 0.00281 ± 0.00151 % ID/g
  biodistribution Pancreas: 0.00337 ± 0.00062 % ID/g
  biodistribution S. Intestine: 0.02037 ± 0.01362 % ID/g
  biodistribution Spleen: 0.02143 ± 0.00625 % ID/g
  biodistribution Stomach: 0.00294 ± 0.00146 % ID/g
[3]; 6 d
  Blood/Bone ratio: 0.007 ± 0.015
  Carcass/Bone ratio: 0.60 ± 0.17
  Kidney/Bone ratio: 10 ± 4
  L. Intestine/Bone ratio: 0.34 ± 0.10
  Liver/Bone ratio: 4.2 ± 1.2
  Muscle/Bone ratio: 0.16 ± 0.12
  S. Intestine/Bone ratio: 0.24 ± 0.07
  biodistribution Bladder: 0.1186 ± 0.05899 % ID/g
  biodistribution Blood: 0.00003 ± 0.00006 % ID/g
  biodistribution Bone: 0.00412 ± 0.00104 % ID/g
  biodistribution Carcass: 0.0025 ± 0.0003 % ID/g
  biodistribution Heart: 0.00158 ± 0.00062 % ID/g
  biodistribution Kidneys: 0.04311 ± 0.01362 % ID/g
  biodistribution L. Intestine: 0.0014 ± 0.00017 % ID/g
  biodistribution Liver: 0.01724 ± 0.00259 % ID/g
  biodistribution Lungs: 0.00142 ± 0.00102 % ID/g
  biodistribution Muscle: 0.00067 ± 0.00046 % ID/g
  biodistribution Pancreas: 0.0012 ± 0.00048 % ID/g
  biodistribution S. Intestine: 0.001 ± 0.00011 % ID/g
  biodistribution Spleen: 0.01313 ± 0.00408 % ID/g
  biodistribution Stomach: 0.00045 ± 0.00010 % ID/g
[3]; 6 d, listed as Lu-DOTA
  biodistribution Bone: 0.004±0.001 % ID/g
[3]; 6 d p.i.
  residual activity in all tissues and carcass: 0.092±0.009 % ID
  residual activity in carcass: 0.044±0.004 % ID
[3]; healthy female nude mice
  clearance pathway: excreted mostly via the renal-urinary clearance pathway
[4]
  Log D7.4: −4.1±0.4
